Columns and labels:
[1] = tested on: L. donovani promastigotes; assay: In vitro potency; assay type: cell-based; conditions: Leishmania donovani, 72 h, read-out: IC50 against L. donovani promastigotes
[2] = In vitro preliminary safety assessment: cytotoxicity on THP-1 cells; assay type: cell-based; conditions: human, PMA-treated THP-1 monocytic cells

| Compound | IC50 [1] | CC50 at 72 h [2] |
| --- | --- | --- |
| CCCCCCCC/C=C\CCCCCCCCCCCCOP(=O)([O-])OCC[N+](C)(C)C [Erufosine] | 9.8 µM | 19.4 µM |
| CCCCCCCCCCCCCCCCOP(=O)([O-])OCC[N+](C)(C)C [Miltefosine] | 3.5 µM |  |

Source: publication PMC10312039 (Journal of Enzyme Inhibition and Medicinal Chemistry, 2023)
